Data from patent US10077288B2, “Hydroxystatin derivatives for the treatment of arthrosis” (Merck Patent GmbH, priority 2012, dated 2018).
pIC50: −log10 of the molar value. *1 amine or outer side, *2 acyl side, *3 side chain or, on linkers, in order; H or OH if unused. Where a SMILES comes first, the peptide text is derived from it. [ ]: non-standard residue; d: D form. The star is where a group is joined. Ahppa(3S,4S) = O=C(C[C@H](O)[C@H](Cc1ccccc1)N[*:1])[*:2]; Sta = CC(C)C[C@H](N)[C@@H](O)CC(=O)O; Isovaleryl = CC(C)CC(=O)*

Assays:
[1] = tested on: rat knee joint inflammation (CAR-induced); experiment: Anti-hyperalgesic effect in animals: carrageenan-induced knee joint inflammation, Hargreaves test and swelling; type: in vivo; settings: intra-articular administration 30 minutes before CAR; for CAR-induced swelling: rat knee joint
Method: EXAMPLE 6: INVESTIGATION OF THE ANTI-HYPERALGESIC EFFECT IN ANIMALS
In order to induce an inflammation reaction, a carrageenan solution […]) was injected intra-articularly on one side into a rat knee joint. The uninjected side was used for control purposes. Six animals per group were used. The […] was determined by means of a micrometer screw (medial-lateral on the knee joint), and the thermal hyperalgesia was determined by means of a directed infrared light source by the Hargreaves method (Hargreaves et al., 1988) on the sole of the foot. Since the site of inflammation (knee joint) is different from the site of measurement (paw sole), use is made here of the term secondary thermal hyperalgesia, the mechanism of which is of importance for the discovery of effective analgesics.
Experimental description of thermal hyperalgesia (Hargreaves test): the experimental animal is placed in a plastic chamber on a quartz sheet. Before testing, the experimental animal is firstly given about 5-15 minutes time to familiarise itself with the environment. As soon as the experimental animal no longer moves so frequently after the familiarisation phase (end of the exploration phase), the infrared light source, whose focus is in the plane of the glass bottom, is positioned directly beneath the rear paw to be stimulated. An experiment run is then started by pressing the button: infrared light results in an increase in the skin temperature of the rear paw. The experiment is terminated either by the experimental animal raising the rear paw (as an expression of the pain threshold being reached) or by automatic switching-off of the infrared light source when a prespecified maximum temperature has been reached. Light reflected by the paw is recorded as long as the experimental animal sits still. Withdrawal of the paw interrupts this reflection, after which the infrared light source is switched off and the time from switching on to switching off is recorded. […]

[2] = target: T1, cathepsin D isolated from the human liver (Homo sapiens, UniProt P07339); experiment: In-vitro fluorescence assay for identification of cathepsin D inhibitors; type: biochemical; settings: human liver cathepsin D 1.4 nM, pH 5.5; read-out: CatD assay IC50-(M)
T1 construct: cathepsin D isolated from the human liver (Sigma-Aldrich); purchased Sigma-Aldrich; host or cells: human liver (tissue-derived, not recombinant)
T1 sequence (P07339 65-161 limits assumed): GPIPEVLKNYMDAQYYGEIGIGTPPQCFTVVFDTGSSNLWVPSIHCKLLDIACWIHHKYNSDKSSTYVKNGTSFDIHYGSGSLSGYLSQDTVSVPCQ
T1 sequence (P07339 169-412 limits assumed): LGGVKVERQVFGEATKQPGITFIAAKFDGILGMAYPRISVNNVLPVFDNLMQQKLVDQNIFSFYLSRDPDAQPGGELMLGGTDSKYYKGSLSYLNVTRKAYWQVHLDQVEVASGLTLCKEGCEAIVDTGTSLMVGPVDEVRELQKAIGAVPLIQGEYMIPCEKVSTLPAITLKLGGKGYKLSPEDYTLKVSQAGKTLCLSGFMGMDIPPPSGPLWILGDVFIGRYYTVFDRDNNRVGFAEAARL
Procedure, shortened: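 Continuous FRET assay: human liver cathepsin D (1.4 nM final) preincubated 10 min at room temperature with serially diluted compound in 100 mM sodium acetate, 1.25% DMSO, 0.25% Chaps, pH 5.5. Started with 5 μM MCA-GKPILFFRLK(Dnp)d-R-NH2; fluorescence increase (ex 340/em 450 nm) over 60 min at room temperature compared with no-compound control.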

[3] = tested on: bovine explants (cartilage degradation, liberation of GAG); settings: pH 5.5, explant cultures (for example from mouse, cow or human); background statement; cited from earlier work
[4] = tested on: bovine explants (cartilage degradation, liberation of GAG); experiment: Cartilage explant assay: pH-induced cartilage degradation, GAG release; type: cell-based; settings: Bos taurus, 72 h, pH 5.5, 3 days
Description: EXAMPLE 5: CARTILAGE EXPLANT ASSAY
In order to investigate the effect of potential cathepsin D inhibitors on cartilage degradation, a pH-induced model based on bovine explants is used. The pH of the medium in which the explants are cultivated is matched here to the pathophysiological pH of an arthrotic knee. This pH is pH 5.5. In this ex vivo model, potential cathepsin D inhibitors are subsequently investigated for their action with respect to stopping of the cartilage degradation process. If the cartilage is destroyed, glycosaminoglycans (GAGs) are released into the cell culture supernatant. The amount of GAGs liberated can be determined quantitatively with the aid of DMMB (dimethylmethylene blue hydrochloride). If sulfated GAGs are detected using dimethylmethylene blue hydrochloride, the decrease in the absorption at 633 nm is utilised. […] In order to determine the concentration, a calibration line is also recorded using chondroitin sulfate.
1.) Procedure: pH-Induced Cartilage Degradation of Bovine Explants
The bovine explants are firstly prepared. The induction of the cartilage degradation is carried out in 96-multiwell plates. One explant is cultivated per well. In each case, 200 μl of DMEM (incubation medium pH 5.5) without FBS+30 μg/ml of ascorbic acid are added. Thus negative control, explants (n=4) are incubated at pH 7.4 (without FBS). This control is not included in the calculation of the data, but instead ensures that the pH change has the desired effect on the liberation of GAG. At this point, the substances to be tested are added. No pre-incubation of the explants is carried out. The explants are cultivated with the corresponding substances for 3 days in the incubator at 37° C. and 7.5% CO2.
In order to investigate the effect of cathepsin D inhibitors on the liberation of GAG (glycosaminoglycan), the substances are employed in the desired concentration and cultivated for 3 days. The compounds to be tested are tested in a first experiment in a concentration of 1 μM and 1% of DMSO. Substances which have an effect of >50% on the liberation of GAG (this corresponds to <50% of the control in the Assay Explorer) are tested in the next experiment at 100 nM and 1% of DMSO. Substances which have an effect of >50% on the liberation of GAG under these conditions (this corresponds to <50% of the control in the Assay Explorer) are tested in a concentration/effect relationship. The compounds here are investigated in the following concentrations: 30 μM, 10 μM, 3 μM, 1 μM, 0.3 μM, 0.1 μM, 0.03 μM, 0.01 μM.
The positive control used is pepstatin A with a concentration of 0.01 μM. The assay window is defined by the control (pH 5.5), defined as 0% effect, and the control pH 5.5+0.01 μM pepstatin A, defined as 100% effect. After incubation for 3 days, the cell culture supernatants are collected and stored at −20° C. or measured directly. The amount of liberated GAG is measured photometrically.
The effect (1 value) of the respective substance in % based on the positive control (pH 5.5+0.01 μM pepstatin A) and the negative control (pH 5.5) is reported for concentrations of 1 μM and 100 nM. The value represents the average of 4 replicants. In the determination of a concentration/effect relationship, an IC50 value is reported to the database (Assay Explorer).
The cell culture supernatants (200 μl) are either measured directly or stored at −20° C. […] A rapid colour reaction occurs, which is subsequently measured at 633 nm using a plate reader (for example Envision). […]

Row | IC50 [2] | SMILES | CAR-induced swelling [1] | inhibition of autodigestion of the cartilage [3] | pIC50 [4] | also measured
1 | 1.2e-05 M | CC[C@H](C)[C@H](NC(=O)C[C@H](O)[C@H](Cc1ccccc1)NC(=O)[C@@H](NC(=O)c1cccc(-c2ccccc2)c1)C(C)C)C(=O)N[C@H](C(=O)OCc1ccccc1)C(C)C [Compound 23, benzly (S)-2-[(2S,3S)-2-((3S,4S)-4-{(S)-2-[(biphenyl-3-carbonyl)-amino]-3-methylbutyrylamino}-3-hydroxy-5-phenylpentanoylamino)-3-methylpentanoylamino]-3-methylbutyrate] | exhibited no influence on inflammatory swelling | – | – | thermal hyperalgesia (anti-hyperalgesic action) ([1]; rat, Hargreaves method): exerts an anti-hyperalgesic action
2 | – | CC(C)c1nc(CN(C)C(=O)N[C@H](C(=O)N[C@@H](Cc2ccccc2)C[C@H](O)[C@H](Cc2ccccc2)NC(=O)OCc2cncs2)C(C)C)cs1 [ritonavir] | – | inhibited virtually completely | – | –
3 | – | CC(C)CC(=O)N[C@H](C(=O)N[C@H](C(=O)N[C@@H](CC(C)C)[C@@H](O)CC(=O)N[C@@H](C)C(=O)N[C@@H](CC(C)C)[C@@H](O)CC(=O)O)C(C)C)C(C)C [pepstatin] (Isovaleryl-VV[Sta]A[Sta]-OH) | – | inhibited virtually completely | – | –
4 | 7.51e-08 M | CC[C@H](C)[C@H](NC(=O)C[C@H](O)[C@H](Cc1ccccc1)NC(=O)[C@H](NC(=O)[C@H](CC(C)C)NC(=O)CC(C)C)C(C)C)C(=O)N[C@H](C(=O)O)C(C)C [Compound 9, (S)-2-[(2S,3S)-2-((3S,4S)-3-hydroxy-4-{(R)-3-methyl-2-[(S)-4-methyl-2-(3-methylbutyrylamino)pentanoylamino]butyrylamino}-5-phenylpentanoylamino)-3-methylpentanoylamino]-3-methylbutyric acid] (Isovaleryl-L[dV][Ahppa(3S,4S)]IV-OH) | – | – | 7.51 | –
5 | – | C[C@]12C=CC(=O)C=C1CC[C@H]1[C@@H]3C[C@@H](O)[C@](O)(C(=O)CO)[C@@]3(C)C[C@H](O)[C@@]12F [TAC, Triamcinolone, reference compound] | capable of reducing the CAR-induced swelling | – | – | –
6 | 3e-09 M | CC[C@H](C)[C@H](NC(=O)C[C@H](O)[C@H](Cc1ccccc1)NC(=O)[C@@H](NC(=O)[C@H](CC(C)C)NC(=O)CC(C)C)C(C)C)C(=O)N[C@H](C(=O)O)C(C)C [Compound 8, (S)-2-[(2S,3S)-2-((3S,4S)-3-hydroxy-4-{(S)-3-methyl-2-[(S)-4-methyl-2-(3-methylbutyrylamino)pentanoylamino]butyrylamino}-5-phenylpentanoylamino)-3-methylpentanoylamino]-3-methylbutyric acid] (Isovaleryl-LV[Ahppa(3S,4S)]IV-OH) | – | – | 8.56 | –
